Laboratory results taken from article PMC6832932, “Design and Selection of Novel C1s Inhibitors by In Silico and In Vitro Approaches” (Molecules, 2019).
pIC50, pKi: −log10 of the molar value. Like-named read-outs stand apart in the source and are kept apart here.

Experiments:
C1s [1] = target: T1, C1s (Homo sapiens, UniProt P09871); settings: ref Subasinghe et al, 2004 [5]; read-out: Ki (C1s, thiopheneamidine inhibitors); cited from earlier work
T1 construct: Recombinant C1s and C1r fragments (CCP1-CCP2-SP, the γB catalytic region); made in house
T1 sequence (P09871 438-688 limits assumed): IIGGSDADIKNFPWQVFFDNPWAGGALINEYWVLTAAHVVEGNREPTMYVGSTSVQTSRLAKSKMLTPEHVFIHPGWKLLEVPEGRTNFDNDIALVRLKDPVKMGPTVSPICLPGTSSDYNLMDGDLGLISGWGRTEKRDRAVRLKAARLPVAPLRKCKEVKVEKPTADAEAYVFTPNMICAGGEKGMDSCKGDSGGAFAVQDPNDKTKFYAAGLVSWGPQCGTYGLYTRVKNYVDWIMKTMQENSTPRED

Human isolated Factor Xa = target: T2, Human isolated Factor Xa (Homo sapiens, UniProt P00742); assay: Factor Xa activity assay (fluorescent substrate Boc-Leu-Gly-Arg-AMC); assay type: biochemical; settings: for remaining activity at 10 µM: 10 µM compound
T2 construct: purchased ThermoFisher Scientific (Waltham, MA, USA)
Method: Human isolated Factor Xa protein was purchased from ThermoFisher Scientific (Waltham, MA, USA). An end-point assay was carried out using the fluorescent amide substrate Boc-Leu-Gly-Arg-AMC used for C1s 10 µM screen; assay conditions: 20 mM HEPES (pH 7,8) 100 mM NaCl, 10 mM CaCl2 30 °C, 0.05% TWEEN-20, 1% DMSO; low enzyme concentration (about 1 nM); in a 96 well microplate format (in 100 µL), using non-binding black plates (Greiner).

C1s [2] = target: T1, C1s; assay: C1s inhibition IC50 assay (thioester substrate Z-Lys-SBzl with DTNB, photometric); assay type: biochemical; settings: read-out: IC50 C1s
Description: (§1) Recombinant C1s and C1r fragments (CCP1-CCP2-SP, the γB catalytic region) containing the serine protease domain were expressed in E. Coli BL21(DE3)pLysS host strain (transformed with pET-17b vector) in form of inclusion bodies; proteins were isolated, renatured and purified as published earlier. Recombinant C1s, isolated in intact proenzyme form, was activated by limited proteolysis using the recombinant, autoactivated C1r fragment. Activated C1s and C1r were separated using Q Sepharose HP (Amersham Biosciences, Little Chalfont, UK) anion exchange chromatography.
40 µL enzyme + 10 µL inhibitor compounds were incubated (10 min, RT), and 50 µL substrate solution (1 mM final concentration) was added; incubated for 45 min and finally absorbance was read (405 nm) with a Perkin Elmer Wallac 1420 Victor2 microplate reader.

C1s [3] = target: T1, C1s; settings: cited from earlier work
C1s [4] = target: T1, C1s; assay: C1s focused library screening (fluorescent substrate Boc-Leu-Gly-Arg-AMC, 10 µM); assay type: biochemical
Description: as §1
Two end-point assays have been developed for C1s inhibition assays: For screening assays a specific, fluorescent amide substrate Boc-Leu-Gly-Arg-AMC (Sigma, St. Louis, MO, USA), representing the cleavage site sequence of C2 was used with relatively high enzyme concentration (0.2 µM). Assay conditions: 20 mM HEPES (pH 7.4), 200 mM NaCl, 0.05% Tween20, 1% DMSO; 384 microplate format; 10 µL enzyme + 10 µL inhibitor compounds (final concentration: 10 µM); incubation time and temperature: 10 min, RT; then 20 µL substrate solution was added (1 mM final concentration); incubated (45 min, 30 °C) and the fluorescence have been read (355/460 nm; Wallac 1420 Victor2 microplate reader, Perkin Elmer, Waltham, MA, USA).

[5] = 1 mM Z-Lys-SBzl, enzyme below 1 nM
[6] = 1 mM Z-Lys-SBzl, text and Figure S1
[7] = 1 mM ZLysSBzl, Figure S1 curves

T2 sequence (P00742 235-488 limits assumed): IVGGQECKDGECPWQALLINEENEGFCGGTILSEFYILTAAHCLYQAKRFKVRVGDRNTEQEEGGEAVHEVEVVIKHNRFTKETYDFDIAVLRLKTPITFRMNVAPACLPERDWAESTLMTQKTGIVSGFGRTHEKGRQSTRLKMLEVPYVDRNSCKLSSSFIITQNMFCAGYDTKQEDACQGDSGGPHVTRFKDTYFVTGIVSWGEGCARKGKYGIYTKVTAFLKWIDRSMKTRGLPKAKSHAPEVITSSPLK
T2 sequence (P00742 41-179 partner limits assumed): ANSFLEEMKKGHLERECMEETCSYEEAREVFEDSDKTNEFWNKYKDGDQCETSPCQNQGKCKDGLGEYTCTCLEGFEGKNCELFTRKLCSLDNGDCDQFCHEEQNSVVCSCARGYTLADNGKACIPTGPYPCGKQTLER

| remaining activity at 10 µM (Human isolated Factor Xa) | pIC50 (C1s [2]; [5]) | SMILES | pKi (C1s [1]) | further results |
| --- | --- | --- | --- | --- |
|  |  | COc1cccc(-c2csc(-c3cc(C(=N)N)sc3SC)n2)c1 [CHEMBL29205] | 6.33 |  |
|  |  | CSc1sc(C(=N)N)cc1-c1nc(-c2cnn(-c3ccccc3)c2OCC2CCC2)cs1 [CHEMBL102835] | 6.28 |  |
|  |  | CCSc1sc(C(=N)N)cc1-c1nc(-c2ccccc2)cs1 [CHEMBL105102] | < 4.70 |  |
|  |  | CSc1sc(C(=N)N)cc1-c1nc(COc2ccccc2)cs1 [CHEMBL287292] | 6.28 |  |
|  |  | CCCOc1c(-c2csc(-c3cc(C(=N)N)sc3SC)n2)cnn1-c1ccccn1 [CHEMBL317917] | 7.15 |  |
|  |  | CSc1sc(C(=N)N)cc1-c1nc(-c2ccc([N+](=O)[O-])cc2)cs1 [CHEMBL29006] | 6.00 |  |
| 48.3% | 5.73 | COc1ccc(C(=O)n2nnc3ccccc32)cc1OC [Entry 5] |  |  |
|  |  | COc1sc(C(=N)N)cc1-c1nc(-c2ccccc2)cs1 [CHEMBL322207] | 4.84 |  |
|  |  | CCCc1nn(C)cc1-c1csc(-c2cc(C(=N)N)sc2SC)n1 [CHEMBL106388] | 6.72 |  |
|  |  | COc1ccccc1-c1csc(-c2cc(C(=N)N)sc2SC)n1 [CHEMBL283080] | 6.07 |  |
| 30.3% | 7.08 | CCOc1ccc(C(=O)n2nnc3ccccc32)cc1 [Entry 1] |  | pIC50 (C1s [2]; [6]): 7.08 |
|  |  | CSc1sc(C(=N)N)cc1-c1nc(-c2cnn(-c3ccccc3)c2OCCC(C)C)cs1 [CHEMBL101698] | 5.82 |  |
|  |  | CCCc1c(-c2csc(-c3cc(C(=N)N)sc3SC)n2)cnn1C [CHEMBL318576] | 6.48 |  |
| 98.6% | 6.32 | O=c1oc(-c2ccco2)nc2cc(Cl)ccc12 [Entry 13] |  |  |
|  |  | CSc1sc(C(=N)N)cc1-c1nc(-c2ccc(-c3ccccc3)cc2)cs1 [CHEMBL418023] | 4.81 |  |
|  |  | N=C(N)c1cc(-c2nc(-c3ccccc3)cs2)c(C(F)(F)F)s1 [CHEMBL103840] | 4.90 |  |
|  |  | CSc1sc(C(=N)N)cc1-c1nc(-c2ccc3ccccc3c2)cs1 [CHEMBL29290] | 6.31 |  |
| 2.39% | 7.92 | COc1ccccc1C(=O)n1nc(-c2ccco2)nc1SC [Entry 9] |  | pIC50 (Human isolated Factor Xa; 500 µM Boc-Leu-Gly-Arg-AMC): 5.90; pIC50 (C1s [2]; [6]): 7.94 |
|  | ~4.30 | Cc1ccc(-c2nc3sc(C)c(C)c3c(=O)o2)cc1 [Entry 20] |  |  |
|  |  | O=C(c1ccc2c(c1)OCO2)C1C2C(=O)N(c3ccc4c(c3)OCCO4)C(=O)C2C2c3ccccc3C=CN12 (stereo not shown) [4,257,399] |  | pIC50 (C1s [3]; ref PubChem, read-out: IC50 C1s): 6.06 |
|  |  | CS(=O)(=O)c1sc(C(=N)N)cc1-c1nc(-c2ccccc2)cs1 [CHEMBL105652] | < 4.55 |  |
|  |  | CSc1sc(C(=N)N)cc1-c1nc(-c2ccc(C)cc2)cs1 [CHEMBL29304] | 6.38 |  |

| remaining activity at 10 µM (Human isolated Factor Xa) | pIC50 (C1s [2]; [5]) | SMILES | pKi (C1s [1]) | further results |
| --- | --- | --- | --- | --- |
|  |  | CSc1sc(C(=N)N)cc1-c1nc(-c2cccnc2Cl)cs1 [CHEMBL285818] | 5.99 |  |
| 76.5% | 5.23 | CCN(CC)c1ccc(C(=O)n2nnc3ccccc32)cc1 [Entry 8] |  |  |
|  |  | N=C(N)c1cc(-c2nc(-c3ccccc3)cs2)cs1 [CHEMBL321519] | < 4.70 |  |
| 46.1% | 6.07 | Cc1cc2c(=O)oc(-c3ccccc3Br)nc2s1 [Entry 18] |  | pIC50 (C1s [2]; [7]): 6.07 |
| 86.2% | 5.89 | CC(C)(C)c1ccc(C(=O)n2nnc3ccccc32)cc1 [Entry 4] |  |  |
|  | 4.39 | Cc1cccc2c(=O)nc(-c3ccco3)oc12 [Entry 23] |  |  |
|  |  | Cc1sc(C(=N)N)cc1-c1nc(-c2ccccc2)cs1 [CHEMBL106071] | 5.22 |  |
| 61.4% | 5.19 | COc1cc2nc(-c3ccco3)oc(=O)c2cc1OC [Entry 14] |  |  |
|  |  | CSc1sc(C(=N)N)cc1-c1nc(-c2ccc(Cl)cc2)cs1 [CHEMBL286243] | 6.36 |  |
|  |  | CSc1sc(C(=N)N)cc1-c1nc(-c2ccccc2)cs1 [CHEMBL281899] | 6.25 |  |
|  |  | CSc1nc(-c2ccco2)nn1C(=O)c1ccco1 [7 965 558] |  | pIC50 (C1s [3]; seed compounds for 2D similarity search, ref PubChem [9],[10], read-out: IC50 (seed compounds)): 5.35 |
|  |  | COc1ccc(-c2csc(-c3cc(C(=N)N)sc3SC)n2)cc1 [CHEMBL28618] | 6.05 |  |
|  |  | CSc1sc(C(=N)N)cc1-c1nc(-c2ccc(Cl)c([N+](=O)[O-])c2)cs1 [CHEMBL413764] | 6.07 |  |
| 0.14% | 5.44 | O=c1nc(-c2ccco2)oc2ccc(Cl)cc12 [Entry 22] |  |  |
|  |  | COc1ccc(-c2csc(-c3cc(C(=N)N)sc3SC)n2)c(OC)c1 [CHEMBL286267] | 6.19 |  |
|  |  | CSc1sc(C(=N)N)cc1-c1nc(-c2cccc(C)c2)cs1 [CHEMBL286498] | 6.02 |  |
| 92.3% | 5.67 | O=C(c1ccc(F)c(F)c1)n1nnc2ccccc21 [Entry 6] |  |  |
|  |  | CCc1sc(C(=N)N)cc1-c1nc(-c2ccccc2)cs1 [CHEMBL441273] | 5.52 |  |
|  |  | CSc1sc(C(=N)N)cc1-c1nc(-c2cnn(-c3ccccc3)c2)cs1 [CHEMBL322834] | 6.82 |  |
|  |  | CSc1sc(C(=N)N)cc1-c1nc(-c2csc3ccccc23)cs1 [CHEMBL28875] | 6.35 |  |
| 43.1% | 7.04 | CC(=O)Nc1ccc(C(=O)n2nnc3ccccc32)cc1 [Entry 2] |  | pIC50 (C1s [2]; [6]): 7.04 |
| 85.4% | 5.62 | CCOC(=O)CSc1nc(-c2cccnc2)nn1C(=O)c1ccccc1 [Entry 12] |  |  |

| remaining activity at 10 µM (Human isolated Factor Xa) | pIC50 (C1s [2]; [5]) | SMILES | pKi (C1s [1]) | further results |
| --- | --- | --- | --- | --- |
| 53.6% | 6.62 | O=c1nc(-c2cccs2)oc2cc(Cl)ccc12 [Entry 21] |  | pIC50 (C1s [2]; [7]): 6.62 |
|  |  | CSc1sc(C(=N)N)cc1-c1nc(-c2cnn(C)c2)cs1 [CHEMBL102417] | 6.34 |  |
| 92.1% | 5.41 | O=C(c1ccc(-c2ccccc2)cc1)n1nnc2ccccc21 [Entry 7] |  |  |
|  |  | CSc1sc(C(=N)N)cc1-c1nc(-c2ccc(Cl)cc2Cl)cs1 [CHEMBL285142] | 5.52 |  |
| 26% | 7.03 | CSc1nc(-c2ccco2)nn1C(=O)c1ccccc1 [Entry 11] |  | pIC50 (C1s [2]; [6]): 7.03 |
| 78.1% | 7.36 | CSc1nc(-c2ccco2)nn1C(=O)c1ccc(F)cc1 [Entry 10] |  | pIC50 (C1s [2]; [6]): 7.36 |
|  |  | CSc1sc(C(=N)N)cc1-c1nc(C2CCCCC2)cs1 [CHEMBL283859] | 5.33 |  |
|  |  | CSc1sc(C(=N)N)cc1-c1nc(-c2cccs2)cs1 [CHEMBL31549] | 6.15 |  |
|  |  | CSc1sc(C(=N)N)cc1-c1nc(-c2ccccc2C)cs1 [CHEMBL28949] | 6.07 |  |
|  |  | N=C(N)c1cc(-c2nc(-c3ccccc3)cs2)c(SCc2ccccc2)s1 [CHEMBL104368] | < 4.70 |  |
|  |  | CSc1sc(C(=N)N)cc1-c1nc(-c2cnccc2Cl)cs1 [CHEMBL28723] | 6.06 |  |
| 82% | 5.17 | O=c1oc(-c2ccco2)nc2ccc(Cl)cc12 [Entry 15] |  | pIC50 (C1s [2]; [7]): 5.18 |
|  |  | CCOc1c(-c2csc(-c3cc(C(=N)N)sc3SC)n2)cnn1-c1ccccc1 [CHEMBL321341] | 7.05 |  |
| 100% | 6.26 | Cc1sc2nc(-c3ccco3)oc(=O)c2c1C [Entry 17] |  | C1s inhibitory activity as reported in ChEMBL and PubChem (in words) (C1s [3]; ref [9]): inactive |
| 77.6% | 4.54 | CC(=O)Oc1ccc2nc(-c3ccco3)oc(=O)c2c1 [Entry 16] |  |  |
|  |  | CSc1sc(C(=N)N)cc1-c1nc(Cc2ccccc2)cs1 [CHEMBL29269] | 5.97 |  |
| 4.93% | 6.62 | COc1cc(SC)ccc1C(=O)n1nnc2ccccc21 [Entry 3] |  |  |
|  | ~4.70 | Cc1sc2nc(-c3ccccc3)oc(=O)c2c1C [Entry 19] |  |  |
|  |  | CSc1sc(C(=N)N)cc1-c1ncc(-c2ccccc2)s1 [CHEMBL322672] | 5.49 |  |
|  |  | O=C(c1ccc(C(=O)n2nnc3ccccc32)cc1)n1nnc2ccccc21 [1-[4-(1,2,3-benzotriazole-1-carbonyl)benzoyl]-1,2,3-benzotriazole] |  | C1s inhibitory activity (in words) (C1s [4]): inactive |
